Measured values: patent US12564580B2, “Mitochondria-targeted isoketal/isolevuglandin scavengers and uses thereof” (Vanderbilt University, priority 2020, dated 2026)

What was measured:
[1] = test system: human aortic endothelial cells (HAEC); experiment: Cardiolipin oxidation in human aortic endothelial cells stimulated with angiotensin II plus TNFα (LC/MS); format: cell-based; details: 50 nM
Method: (§1) FIGS. 9A and B show the effect of mito2HOBA on mitochondrial superoxide and cardiolipin oxidation in human aortic endothelial cells induced by angiotensin II plus TNFα. (A) Mitochondrial superoxide was measured by HPLC analysis of mitoSOX-superoxide specific product, mito-2-hydroxyethidium (Mito-2OH-Et+). […] (B) Cardiolipin oxidation induced by Angiotensin II+TNFα measured my LC/MS. […] Data are mean±SEM. *P<0.01 vs Control, **P<0.01 vs Angiotensin II+TNFα (n=4).
Cardiolipin oxidation in human aortic endothelial cells was measured by Liquid Chromatography-Mass Spectrometry (LC/MS) as described previously.^44 The extracted lipid fraction was separated online by UPLC using a Waters Acquity UPLC system (Waters Corp., Milford, MA). Mass Spectrometry analysis was performed on a Thermo Quantum Ultra triple quadrupole mass spectrometer (Thermo Scientific Inc., San Jose, CA, USA).
(§2) Human aortic endothelial cells (HAEC) were purchased from Lonza (Chicago, IL) and cultured in EGM-2 medium supplemented with 2% FBS but without antibiotics. On the day before the study, the FBS concentration was reduced to 1%.

kidney mitochondria [2] = experiment: Respiration of kidney mitochondria isolated from mito2HOBA and LPS treated mice; format: in vivo, mouse
Method: To study the mitochondrial function, the combination of glutamate and malate (GM) or succinate was used as substrates. Since glutamate can be converted via transamination to α-ketoglutarate and further to succinate, the present inventors used complex II inhibitor malonate to define specific complex I respiration. The basal respiration (1) was measured in mitochondria supplemented with respiratory substrates. Then ADP was added to measure the coupled respiration (2). The proton leak (3) was determined after addition of complex V inhibitor oligomycin A. The uncoupled respiration (4) was measured after supplementation with CCCP. Finally, antimycin A plus rotenone were added to assess non-mitochondrial respiration (5) as described previously [32].
In order to define specific alterations in the mitochondrial respiration in LPS model of sepsis and test the potential protection by mito2HOBA the present inventors adopted the Seahorse protocol for mitochondrial studies in the presence of mitochondrial substrates Glutamate+Malate (GM) or succinate. To define the specific role of complex I mediated respiration the present inventors performed measurements in the presence of complex II inhibitor malonate (5 mM). The present inventors measured basal respiration in the presence of mitochondria plus substrates, coupled respiration after addition of ADP (2 mM), proton leak following addition of oligomycin A (2.5 μM) uncoupled respiration after supplementation of CCCP (1 μM) and non-mitochondrial respiration with mixture of antimycin A and rotenone (1 μM) Mitochondrial studies where independently verified in two labs using Oroboros O2k high-resolution respirometry and Fluorescence Lifetime Micro Oxygen Monitoring System (Instech Laboratories, Inc). Kidney mitochondria were isolated from control sham mice, LPS-injected mice (25 μg/g, 16 hours post-injection), mito2HOBA supplemented mice (0.1 g/Liter drinking water, 4 days), or mito2HOBA plus LPS (0.1 g/Liter mito2HOBA for 3 days plus LPS injection).

mouse aortic rings = experiment: Vasodilatation study of aortic rings (endothelial-dependent relaxation); format: in vivo; details: Ang II plus mito2HOBA
Method: FIGS. 12A-D show the effect of mito2HOBA supplementation on mitochondrial superoxide (A), vascular superoxide (B), endothelial nitric oxide (C) and endothelial-dependent relaxation (D) in angiotensin II-infused mice. Mitochondrial and vascular O2⋅ was measured by mitochondria-targeted superoxide probe mitoSOX (1 μM) or untargeted superoxide probe DHE (50 μM) using HPLC.46 Endothelial nitric oxide was analyzed by NO spin trap Fe(DETC)2 and ESR.47 C57B1/6J mice were infused with Ang II and mito2HOBA was provided in the drinking water (0.1 g/L). […] Results are mean±SEM. *P<0.01 vs Sham, **P<0.01 vs Ang II (n=6).
Isometric tension studies were performed on 2 mm mouse aortic rings dissected free of perivascular fat from C57B/6J mice. Studies were performed in a horizontal wire myograph (DMT, Aarhus, Denmark, models 610 M and 620 M) containing physiological salt solution with the composition of 130 mM NaCl, 4.7 mM KCl 1.2 mM MgSO4, 1.2 mM KH2PO4, 15 mM NaHCO3, 5.5 mM glucose, and 1.6 mM CaCl2. The isometric tone of each vessel was recorded using LabChart Pro v7.3.7 (AD Instruments, Australia). […] Once the vessels reach a steady state contraction, increasing concentrations of acetylcholine were administered, and the response to each concentration of drug was recorded.

[3] = test system: human aortic endothelial cells (HAEC); experiment: Mitochondrial superoxide in human aortic endothelial cells stimulated with angiotensin II plus TNFα (mitoSOX HPLC); format: cell-based; details: 50 nM, angiotensin II plus TNFα for 4-hours
Method: as §1, §2
We tested if mito2HOBA reduces mitochondrial oxidative stress in human aortic endothelial cells (HAEC) stimulated with angiotensin II plus TNFα for 4-hours (FIG. 9). Indeed, supplementation of HAEC with mito2HOBA (50 nM) reduced mitochondrial superoxide production stimulated by TNF[…] and Ang II as measured by accumulation of specific superoxide-MitoSOX product, 2-OH-Mito-Ethidium.

kidney mitochondria [4] = experiment: Respiration of kidney mitochondria from angiotensin II-infused mice (respiratory control ratio); format: in vivo, mouse; details: Ang II plus mito2HOBA
Method: FIGS. 13A-B show mito2HOBA reduces mPTP opening and prevents mitochondrial dysfunc¬tion. C57B1/6J mice were infused with Ang II ([…]) and mito2HOBA in the drinking water (0.1 g/L). Following 14 days of Ang II infusion the animals were sacrificed and kidneys were isolated for mitochondrial studies. Addition of CaCl2 to mitochondria above Ca2+ retention capacity led to mPTP opening and mitochondria swelling. 71 Mitochondria isolated from Ang II-infused mice had significant reduction in Ca2+ capacity due to increased mPTP opening and CypD inhibitor Cyclosporine A (CsA) rescued Ca2+ retention capacity (A). Respiratory control ratio (State 3/State 4) was measured in isolated kidney mitochondria with glutamate and malate (B). Control level is 100%. (C) Renal ATP was measured in freshly isolated tissue by luciferase-based luminescent assay. 72 Results are mean±SEM. *P<0.01 vs Sham, **P<0.01 vs Angiotensin II (n=5).
The following respiration medium was used (in mM): 125 mM KCl, 10 mM MOPS (pH 7.2), 2 mM MgCl2, 2 mM KH2PO4, 10 mM NaCl, 1 mM EGTA, 0.7 mM CaCl2, 10 mM glutamate and 2 mM malate. […] Respiratory control ratio was calculated as the rate ratio State 3 to State 4, where State 4 is the rate after ADP phosphorylation.

[5] = Tolerability in animal experiments; format: in vivo; details: doses from 0.1-0.3 g/L in drinking water
Text: (§3) Mito2HOBA is a water-soluble compound which can be supplied in the media and provided to animals in the drinking water.

[6] = Mass spectrometric analysis of mitochondria from mice given mito2HOBA in drinking water; format: in vivo
Text: as §3

[7] = LPS 25 μg/g plus mito2HOBA 0.1 g/L
[8] = mito2HOBA alone, 0.1 g/L drinking water, 4 days
[9] = kidney and heart mitochondria, drinking water 0.1 g/L for 5-days

Q: With `NCc1ccc(OCCCC[P+](c2ccccc2)(c2ccccc2)c2ccccc2)cc1O` [mito2HOBA] as the compound, how does the cardiolipin oxidation [1] read?
A: inhibited

Q: And the “LPS-induced impairment of GM-mediated respiration” value (kidney mitochondria [2]; [7])?
A: significantly protected

Q: What about the “LPS-induced impairment of complex I-specific oxygen consumption in the presence of GM+malonate” value (kidney mitochondria [2]; [7]) of the same compound?
A: significantly protected

Q: And the mitochondrial protein leak (kidney mitochondria [2]; [7])?
A: did not affect

Q: And the succinate mediated respiration (kidney mitochondria [2]; [7])?
A: did not affect

Q: And the “complex I-specific oxygen consumption in the presence of GM+malonate” value (kidney mitochondria [2]; [8])?
A: improved

Q: What about the succinate-driven respiration (kidney mitochondria [2]; [8]) of the same compound?
A: slightly reduced

Q: What about the endothelial-dependent relaxation (mouse aortic rings) of the same compound?
A: preserved

Q: What about the mitochondrial superoxide production [3] of the same compound?
A: reduced

Q: And the “mitochondrial respiration supported by glutamate plus malate” value (kidney mitochondria [4])?
A: preserved

Q: And the tolerability [5]?
A: well tolerated

Q: And the “level in the mitochondrial fraction” value [6, 9]?
A: μM levels

Q: What about the “share accumulated in the mitochondrial fraction” value [6, 9] of the same compound?
A: 80%

Q: What about the “accumulation in the mitochondria of multiple organs” value ([6]; kidney, heart and liver) of the same compound?
A: robustly accumulated
